Where a SMILES comes first, the peptide text is derived from it. [ ]: non-standard residue; d: D form. The star is where a group is joined. sY = N[C@@H](Cc1ccc(OS(=O)(=O)O)cc1)C(=O)O; Nle = CCCC[C@H](N)C(=O)O; Orn = NCCC[C@H](N)C(=O)O; Cbz = O=C(OCc1ccccc1)*; Boc = CC(C)(C)OC(=O)*
Columns and labels:
[1] = biological target: Gastrin/cholecystokinin type B receptor (Cavia porcellus); test: Apparent affinity to inhibit binding of [3H]pCCK-8 to Cholecystokinin type B receptor of guinea pig brain membranes
[2] = biological target: Gastrin/cholecystokinin type B receptor (Cavia porcellus); test: as above; remark: listed apart in the source

Ki [2]	Structure (SMILES)	Ki [1]
	CC(C)(C)OC(=O)NCCC[C@H](NC(=O)[C@H](Cc1c[nH]c2ccccc12)NC(=O)OC(C)(C)C)C(=O)N[C@@H](CC(=O)O)C(N)=O [3-{5-tert-Butoxycarbonylamino-2-[2-tert-butoxycarbonylamino-3-(1H-indol-3-yl)-propionylamino]-pentanoylamino}-succinamic acid] (Boc-Trp-[Orn](Boc)-Asp-NH2)	4.3 µM
	CC(C)(C)OC(=O)N[C@@H](Cc1c[nH]c2ccccc12)C(=O)N[C@@H](CCCN)C(=O)N[C@@H](CC(=O)O)C(=O)N[C@@H](Cc1ccccc1)C(N)=O (Boc-W[Orn]DF-NH2)	1.4 µM
4.2 µM	CC(C)(C)OC(=O)N[C@@H](Cc1c[nH]c2ccccc12)C(=O)N[C@@H](CCCNC(=O)OCc1ccccc1)C(=O)N[C@@H](CC(=O)O)C(N)=O (Boc-Trp-[Orn](Cbz)-Asp-NH2)	
0.054 µM	CCCC[C@H](NC(=O)[C@H](Cc1ccc(OS(=O)(=O)O)cc1)NC(=O)OC(C)(C)C)C(=O)NCC(=O)N[C@@H](Cc1c[nH]c2ccccc12)C(=O)N[C@@H](CCCNC(=O)OCc1ccccc1)C(=O)N[C@@H](CC(=O)O)C(N)=O (Boc-[sY][Nle]GW[Orn](Cbz)D-NH2)	
0.58 µM	CC(C)(C)OC(=O)N[C@@H](Cc1c[nH]c2ccccc12)C(=O)N[C@@H](CCCNC(=O)OCc1ccccc1)C(=O)N[C@@H](CC(=O)O)C(=O)N[C@@H](Cc1ccccc1)C(N)=O (Boc-W[Orn](Cbz)DF-NH2)	

From BindingDB's records for doi:10.1021/jm00174a016 (University of Paris, 1991)
